Results as given in patent US7713994B2 (Wyeth LLC, priority 2005, dated 2010).
Where two headings read alike, the source gives them in different places.

Tests used:
cyclin E/CDK2 enzyme = target: T1, cyclin E/CDK2 enzyme (Homo sapiens, UniProt P24941); assay: CDK2 ELISA kinase assay (phospho-Rb ser 795 detection); type: biochemical
T1 construct: made in house; host or cells: Sf9 insect cells, recombinant baculovirus
In short: (§1)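 GST-Rb C-terminal fragment coated on plates; partially purified Sf9-expressed cyclin D1/CDK4, cyclin E/CDK2 or cyclin B/CDK1 with 200 μM ATP, pH 7.5 HEPES/MgCl2 buffer, 1 h at 30 °C; screen compound final 10 μg/ml. Phospho-Rb Ser795 detected by antibody ELISA (TMB, A450); % of control, IC50 from background-subtracted inhibition curves.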

LoVo = assay: Cytotoxicity assay (SRB), LoVo; type: cell-based; conditions: Homo sapiens, LoVo, 72 h, LoVo cells, SRB, read-out: In Vitro Cellular Activity IC50 LOVO
In short: (§2)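 Cells seeded overnight at 37 °C, 7% CO2 (BT474 12000, HCT-116 4000, LoVo and MCF-7 6000 cells/well) in RPMI 1640 with 5% FBS, then exposed to compound dilutions for 3 days (BT474 6 days). Survival versus untreated controls by TCA fixation and SRB staining, absorbance 540 nm.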

HCT-116 = assay: Cytotoxicity assay (SRB), HCT-116; type: cell-based; conditions: Homo sapiens, HCT-116, 72 h, HCT116 cells, SRB, read-out: In Vitro Cellular Activity IC50 HCT116
In short: as §2

BT474 = assay: Cytotoxicity assay (SRB), BT474; type: cell-based
In short: as §2

cyclin B/CDK1 enzyme = target: T2, cyclin B/CDK1 enzyme (Homo sapiens, UniProt P06493); assay: CDK1 ELISA kinase assay (phospho-Rb ser 795 detection); type: biochemical
T2 construct: purchased New England BioLabs; host or cells: Sf9 insect cells, recombinant baculovirus
T2 sequence (P06493 whole entry): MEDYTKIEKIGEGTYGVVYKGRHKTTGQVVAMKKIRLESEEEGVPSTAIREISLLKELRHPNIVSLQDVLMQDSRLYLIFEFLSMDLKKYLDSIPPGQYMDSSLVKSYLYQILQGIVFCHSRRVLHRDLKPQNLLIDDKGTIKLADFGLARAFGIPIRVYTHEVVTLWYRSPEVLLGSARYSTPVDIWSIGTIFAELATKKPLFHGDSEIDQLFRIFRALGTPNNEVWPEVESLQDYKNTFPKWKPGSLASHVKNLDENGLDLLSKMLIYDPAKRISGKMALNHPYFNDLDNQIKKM
T2 sequence (P14635 whole entry partner): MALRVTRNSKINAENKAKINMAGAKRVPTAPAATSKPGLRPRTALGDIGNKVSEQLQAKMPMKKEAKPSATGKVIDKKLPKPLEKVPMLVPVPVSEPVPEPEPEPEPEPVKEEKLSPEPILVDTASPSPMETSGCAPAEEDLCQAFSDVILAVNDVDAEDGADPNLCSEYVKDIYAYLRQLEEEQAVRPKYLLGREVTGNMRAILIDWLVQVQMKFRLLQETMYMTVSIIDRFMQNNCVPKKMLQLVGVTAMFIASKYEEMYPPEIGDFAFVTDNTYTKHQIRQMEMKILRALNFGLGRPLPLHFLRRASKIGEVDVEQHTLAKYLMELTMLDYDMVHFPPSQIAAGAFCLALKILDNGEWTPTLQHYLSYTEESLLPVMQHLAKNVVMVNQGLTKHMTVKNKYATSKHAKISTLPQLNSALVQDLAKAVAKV
In short: as §1

cyclin D1/cdk 4 enzyme = target: T3, cyclin D1/cdk 4 enzyme (Homo sapiens, UniProt P11802); assay: CDK4 ELISA kinase assay (phospho-Rb ser 795 detection); type: biochemical
T3 construct: made in house; host or cells: Sf9 insect cells, recombinant baculovirus
T3 sequence (P11802 whole entry, species assumed): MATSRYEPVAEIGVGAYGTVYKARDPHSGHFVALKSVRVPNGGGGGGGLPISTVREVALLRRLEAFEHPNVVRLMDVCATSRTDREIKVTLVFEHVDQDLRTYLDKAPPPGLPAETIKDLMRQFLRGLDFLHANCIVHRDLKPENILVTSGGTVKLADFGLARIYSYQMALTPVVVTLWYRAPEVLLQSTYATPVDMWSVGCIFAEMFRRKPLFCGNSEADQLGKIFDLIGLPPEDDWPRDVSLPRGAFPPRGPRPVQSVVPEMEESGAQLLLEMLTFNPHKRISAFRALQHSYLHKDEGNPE
T3 sequence (P24385 whole entry partner, species assumed): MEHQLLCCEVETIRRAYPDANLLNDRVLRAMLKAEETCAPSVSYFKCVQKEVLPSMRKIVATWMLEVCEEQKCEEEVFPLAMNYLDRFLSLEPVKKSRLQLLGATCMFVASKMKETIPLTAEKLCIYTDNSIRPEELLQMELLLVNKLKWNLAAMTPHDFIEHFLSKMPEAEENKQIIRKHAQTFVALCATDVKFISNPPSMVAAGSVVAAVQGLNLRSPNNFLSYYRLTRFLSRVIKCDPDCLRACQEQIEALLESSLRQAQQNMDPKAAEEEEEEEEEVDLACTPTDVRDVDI
In short: as §1

MCF-7 = assay: Cytotoxicity assay (SRB), MCF-7; type: cell-based; conditions: Homo sapiens, MCF7, 72 h, MCF-7 cells, SRB, read-out: In Vitro Cellular Activity IC50 MCF-7
In short: as §2

[1] = In Vitro Enzyme Assays, read-out: CDK2 IC50
[2] = Homo sapiens, BT-474, 144 h, BT474 cells, SRB, 6 days; read-out: In Vitro Cellular Activity IC50 BT474
[3] = In Vitro Enzyme Assays, read-out: CDK1 IC50
[4] = In Vitro Enzyme Assays, 200 μM ATP, read-out: CDK4 IC50
[5] = Homo sapiens, BT-474, 144 h, BT474 cells, 6 days, SRB; read-out: In Vitro Cellular Activity IC50 BT474
[6] = In Vitro Enzyme Assay, cyclin E/CDK2, read-out: CDK2 IC50
[7] = In Vitro Enzyme Assay, cyclin B/CDK1, read-out: CDK1 IC50
[8] = In Vitro Enzyme Assay, cyclin D1/cdk 4, read-out: CDK4 IC50

| SMILES | IC50 (cyclin E/CDK2 enzyme; [1]) [µM] | IC50 (LoVo; three days) [µM] | IC50 (HCT-116; three days) [µM] | IC50 (BT474; [2]) [µM] | melting point | IC50 (cyclin B/CDK1 enzyme; [3]) [µM] | IC50 (cyclin D1/cdk 4 enzyme; [4]) [µM] | IC50 (MCF-7; three days) [µM] | IC50 (LoVo; 3 days) [µM] | IC50 (HCT-116; 3 days) [µM] | IC50 (BT474; [5]) [µM] | IC50 (MCF-7; 3 days) [µM] | IC50 (cyclin E/CDK2 enzyme; [6]) [µM] | IC50 (cyclin B/CDK1 enzyme; [7]) [µM] | IC50 (cyclin D1/cdk 4 enzyme; [8]) [µM] |
| --- | --- | --- | --- | --- | --- | --- | --- | --- | --- | --- | --- | --- | --- | --- | --- |
| C[C@@H]1CN(c2c(F)cc(N/C=C3\C(=O)NC(=O)c4ccc(Br)cc43)cc2F)C[C@H](C)N1 [Example 381, (4Z)-6-Bromo-4-[({4-[(3R,5S)-3,5-dimethylpiperazin-1-yl]-3,5-difluorophenyl}amino)-methylene]isoquinoline-1,3(2H,4H)-dione] | 3.1 | 3.4 | 2 | 3 | 187 to 188 °C | > 50 | 13.2 | 4.3 | – | – | – | – | – | – | – |
| C[C@@H]1CN(c2ccc(N/C=C3\C(=O)NC(=O)c4ccc(Br)cc43)cc2)C[C@H](C)N1C [Example 240, (4Z)-6-Bromo-4-[({4-[(3R,5S)-3,4,5-trimethylpiperazin-1-yl]phenyl}amino)methylene]-isoquinoline-1,3(2H,4H)-dione] | > 50 | 3.7 | 2.7 | 3.1 | 213 to 214 °C | > 50 | 17.3 | 2 | – | – | – | – | – | – | – |
| C[C@@H]1CN(c2cncc(N/C=C3\C(=O)NC(=O)c4ccc(-c5ccoc5)cc43)c2)C[C@H](C)N1 [Example 346, (4Z)-4-[({5-[(3R,5S)-3,5-Dimethylpiperazin-1-yl]pyridin-3-yl}amino)methylene]-6-(3-furyl)isoquinoline-1,3(2H,4H)-dione] | > 50 | 2.1 | 1.9 | 0.96 | 175 to 176 °C | > 50 | 0.18 | 1.4 | – | – | – | – | – | – | – |
| Cc1cc(N/C=C2\C(=O)NC(=O)c3ccc(-c4ccsc4)cc32)cnc1N1C[C@@H](C)N[C@@H](C)C1 [Example 356, (4Z)-4-[({6-[(3R,5S)-3,5-Dimethylpiperazin-1-yl]-5-methylpyridin-3-yl}amino)methylene]-6-thien-3-ylisoquinoline-1,3(2H,4H)-dione] | > 50 | 2.8 | 1.6 | 3 | 219 to 220 °C | > 50 | 0.39 | 2.7 | – | – | – | – | – | – | – |
| O=C1NC(=O)c2ccc(I)cc2/C1=C/Nc1ccc(CN2CCCCC2CO)cc1 (centres unmarked) [Example 439, (4Z)-4-{[(4-{[2-(Hydroxymethyl)piperidin-1-yl]methyl}phenyl)amino]methylene}-6-iodoisoquinoline-1,3(2H,4H)-dione] | > 50 | – | – | – | 205 to 206 °C | > 50 | 0.86 | – | 2.5 | 3.5 | 0.38 | 0.75 | – | – | – |
| CCCOc1ccc(CN/C=C2\C(=O)N(O)C(=O)c3ccccc32)cc1O [Example 230, 2-Hydroxy-4-[(3-hydroxy-4-propoxy-benzylamino)-methylene]-4H-isoquinoline-1,3-dione] | 38 | 3.8 | 2.1 | 6.4 | 176 to 178 °C | > 50 | 27.7 | 3.1 | – | – | – | – | – | – | – |
| COC[C@@H]1CCCN1Cc1ccc(N/C=C2\C(=O)NC(=O)c3ccc(I)cc32)nc1 [Example 478, (4Z)-6-Iodo-4-{[(5-{[(2S)-2-(methoxymethyl)pyrrolidin-1-yl]methyl}pyridin-2-yl)amino]methylene}isoquinoline-1,3(2H,4H)-dione] | – | – | – | – | 185 to 186 °C | – | – | – | 46.8 | 24.2 | > 50 | 44.8 | > 50 | > 50 | 17.6 |
| Nc1cccc(CN/C=C2\C(=O)NC(=O)c3ccc(Br)cc32)c1 [Example 52, (4Z)-4-{[(3-Aminobenzyl)amino]methylene}-6-bromoisoquinoline-1,3(2H,4H)-dione] | 4.5 | > 50 | 40 | 41 | 214 to 215 °C | > 50 | 24.3 | > 50 | – | – | – | – | – | – | – |
| CN1CCN(NC(=O)Nc2ccc(N/C=C3\C(=O)NC(=O)c4ccc(Br)cc43)cc2)CC1 [Example 217, N-(4-{[(Z)-(6-Bromo-1,3-dioxo-2,3-dihydroisoquinolin-4(1H)-′ylidene)methyl]amino}phenyl)-N′-(4-methylpiperazin-1-yl)urea] | > 50 | 4.8 | 2.6 | 3.3 | 270 to 271 °C | 31.7 | 13.9 | 7.4 | – | – | – | – | – | – | – |
| C[C@@H]1CN(c2ccc(N/C=C3\C(=O)NC(=O)c4ccc(Br)cc43)cc2C(F)(F)F)C[C@H](C)N1 [Example 372, (4Z)-6-Bromo-4-({[4-[(3R,5S)-3,5-dimethylpiperazin-1-yl]-3-(trifluoromethyl)phenyl]amino}methylene)isoquinoline-1,3(2H,4H)-dione] | 20.2 | 1.4 | 1.2 | 2.9 | 224 to 225 °C | > 50 | > 50 | 3.2 | – | – | – | – | – | – | – |
| CN1CCN(c2ccc(CN/C=C3\C(=O)NC(=O)c4ccc(I)cc43)cc2O)CC1 [Example 521, (4Z)-4-({[3-Hydroxy-4-(4-methylpiperazin-1-yl)benzyl]amino}methylene)-6-iodoisoquinoline-1,3(2H,4H)-dione] | – | – | – | – | 180 to 181 °C | – | – | – | 5.44 | 2.57 | 7.55 | 2.6 | 0.56 | 2.6 | 0.02 |
| CN1CCN(c2ccc(N/C=C3\C(=O)NC(=O)c4ccc(I)cc43)cc2F)CC1 [Example 295, (4Z)-4-({[3-Fluoro-4-(4-methylpiperazin-1-yl)phenyl]amino}methylene)-6-iodoisoquinoline-1,3(2H,4H)-dione] | > 50 | 3.7 | 3.1 | 3.1 | 211 to 212 °C | > 50 | 1.5 | 1.8 | – | – | – | – | – | – | – |
| CN1CCCC1c1ccc(N/C=C2\C(=O)NC(=O)c3ccc(-n4cccc4)cc32)nc1 (centres unmarked) [Example 459] | – | – | – | – | 186 to 196 °C (dec.) | – | – | – | 9.5 | 13 | 17.3 | 10.7 | > 50 | > 50 | 3.7 |
